Target: CFTR (Homo sapiens, UniProt P13569)
Assay: standard Ussing Chamber Assay for CFTR potentiator activity
Assay type: cell-based
Procedure: tert-Butyl N-[(6R,12R)-6-benzyloxy-12-methyl-6,15-bis(trifluoromethyl)-13,19-dioxa-3,4,18-triazatricyclo[12.3.1.12,5]nonadeca-1(18),2,4,14,16-pentaen-17-yl]-N-tert-butoxycarbonyl-carbamate (8.6 g, 11.77 mmol) was dissolved in ethanol (172 mL) then the flask was cycled 3 times between vacuum/nitrogen. Treated the mixture with 10% Pd/C (50% water wet, 1.8 g of 5% w/w, 0.8457 mmol) then cycled 3 times between vacuum/nitrogen and 3 times between vacuum/hydrogen and then stirred vigorously under hydrogen (balloon) at room temperature for 18 hours. The mixture was cycled 3 times between vacuum/nitrogen, filtered over Celite, washing with ethanol, and then the filtrate was evaporated to give 7.3 g of tert-butyl N-tert-butoxycarbonyl-N-[(6R,12R)-6-hydroxy-12-methyl-6,15-bis(trifluoromethyl)-13,19-dioxa-3,4,18-triazatricyclo[12.3.1.12,5]nonadeca-1(18),2,4,14,16-pentaen-17-yl]carbamate an off-white solid. 1H NMR and MS confirmed the expected product. CFTR modulating activity was confirmed using a standard Ussing Chamber Assay for CFTR potentiator activity.

CFTR, sequence (P13569 whole entry, species assumed): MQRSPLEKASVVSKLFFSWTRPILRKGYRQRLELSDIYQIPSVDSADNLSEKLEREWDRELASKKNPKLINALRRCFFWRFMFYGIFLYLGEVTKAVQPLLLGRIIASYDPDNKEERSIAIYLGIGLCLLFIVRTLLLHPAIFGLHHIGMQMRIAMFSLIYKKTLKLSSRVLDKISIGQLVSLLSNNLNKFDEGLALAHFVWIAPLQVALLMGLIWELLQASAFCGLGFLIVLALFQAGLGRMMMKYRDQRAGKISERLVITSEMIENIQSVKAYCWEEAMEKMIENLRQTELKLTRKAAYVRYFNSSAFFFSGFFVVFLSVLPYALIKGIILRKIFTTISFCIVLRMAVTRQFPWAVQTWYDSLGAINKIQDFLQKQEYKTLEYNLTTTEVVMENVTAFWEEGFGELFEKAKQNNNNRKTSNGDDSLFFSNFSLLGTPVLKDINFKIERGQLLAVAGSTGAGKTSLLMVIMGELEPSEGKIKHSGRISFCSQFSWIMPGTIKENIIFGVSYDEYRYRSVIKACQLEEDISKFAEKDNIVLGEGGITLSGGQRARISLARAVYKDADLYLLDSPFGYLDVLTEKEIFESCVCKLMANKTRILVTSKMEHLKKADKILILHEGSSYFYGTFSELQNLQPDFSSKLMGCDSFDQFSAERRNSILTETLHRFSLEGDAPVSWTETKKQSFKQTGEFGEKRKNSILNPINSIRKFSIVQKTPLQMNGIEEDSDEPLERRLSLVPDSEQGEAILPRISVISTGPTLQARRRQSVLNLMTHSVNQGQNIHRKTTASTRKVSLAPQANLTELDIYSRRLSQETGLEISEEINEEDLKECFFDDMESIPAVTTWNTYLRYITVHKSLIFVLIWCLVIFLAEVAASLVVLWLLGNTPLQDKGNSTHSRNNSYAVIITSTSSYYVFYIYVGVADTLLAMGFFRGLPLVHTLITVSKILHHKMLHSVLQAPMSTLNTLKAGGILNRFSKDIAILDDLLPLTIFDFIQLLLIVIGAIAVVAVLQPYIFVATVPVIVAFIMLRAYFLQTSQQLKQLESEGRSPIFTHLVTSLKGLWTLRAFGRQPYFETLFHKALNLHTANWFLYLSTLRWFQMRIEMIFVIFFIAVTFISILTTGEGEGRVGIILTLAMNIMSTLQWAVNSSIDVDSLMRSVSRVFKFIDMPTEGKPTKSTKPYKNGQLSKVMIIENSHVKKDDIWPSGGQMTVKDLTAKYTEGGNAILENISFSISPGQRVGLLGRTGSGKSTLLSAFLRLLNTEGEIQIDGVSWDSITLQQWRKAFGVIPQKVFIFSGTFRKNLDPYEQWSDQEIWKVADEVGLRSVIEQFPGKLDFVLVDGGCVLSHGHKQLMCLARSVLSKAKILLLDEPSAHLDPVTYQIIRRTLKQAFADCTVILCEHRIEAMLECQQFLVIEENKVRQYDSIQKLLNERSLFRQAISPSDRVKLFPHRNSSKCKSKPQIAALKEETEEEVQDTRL

CFTR modulating activity (CFTR potentiator activity): confirmed
Structure (SMILES): C[C@@H]1CCCCC[C@](O)(C(F)(F)F)C2=NN=C(O2)c2nc(c(C(F)(F)F)cc2N)O1 [(6R,12R)-17-amino-12-methyl-6,15-bis(trifluoromethyl)-13,19-dioxa-3,4,18-triazatricyclo[12.3.1.12,5]nonadeca-1(18),2,4,14,16-pentaen-6-ol]

— patent US12612416B2, “Modulators of cystic fibrosis transmembrane conductance regulator” (VERTEX PHARMACEUTICALS INCORPORATED, priority 2020, dated 2026)
